We go through eight compounds from patent US20230302150A1, “ANTIBODY-TLR AGONIST CONJUGATES, METHODS AND USES THEREOF” (Ambrx, Inc., priority 2020, published 2023).

Each structure is given as a SMILES string.

The target in the assay is T1, hTLR7 (Homo sapiens, UniProt Q9NYK1).
T1 construct: expressed in transfected cells; host or cells: HEK-Blue hTLR7 reporter cell line
T1 sequence (Q9NYK1 27-1049): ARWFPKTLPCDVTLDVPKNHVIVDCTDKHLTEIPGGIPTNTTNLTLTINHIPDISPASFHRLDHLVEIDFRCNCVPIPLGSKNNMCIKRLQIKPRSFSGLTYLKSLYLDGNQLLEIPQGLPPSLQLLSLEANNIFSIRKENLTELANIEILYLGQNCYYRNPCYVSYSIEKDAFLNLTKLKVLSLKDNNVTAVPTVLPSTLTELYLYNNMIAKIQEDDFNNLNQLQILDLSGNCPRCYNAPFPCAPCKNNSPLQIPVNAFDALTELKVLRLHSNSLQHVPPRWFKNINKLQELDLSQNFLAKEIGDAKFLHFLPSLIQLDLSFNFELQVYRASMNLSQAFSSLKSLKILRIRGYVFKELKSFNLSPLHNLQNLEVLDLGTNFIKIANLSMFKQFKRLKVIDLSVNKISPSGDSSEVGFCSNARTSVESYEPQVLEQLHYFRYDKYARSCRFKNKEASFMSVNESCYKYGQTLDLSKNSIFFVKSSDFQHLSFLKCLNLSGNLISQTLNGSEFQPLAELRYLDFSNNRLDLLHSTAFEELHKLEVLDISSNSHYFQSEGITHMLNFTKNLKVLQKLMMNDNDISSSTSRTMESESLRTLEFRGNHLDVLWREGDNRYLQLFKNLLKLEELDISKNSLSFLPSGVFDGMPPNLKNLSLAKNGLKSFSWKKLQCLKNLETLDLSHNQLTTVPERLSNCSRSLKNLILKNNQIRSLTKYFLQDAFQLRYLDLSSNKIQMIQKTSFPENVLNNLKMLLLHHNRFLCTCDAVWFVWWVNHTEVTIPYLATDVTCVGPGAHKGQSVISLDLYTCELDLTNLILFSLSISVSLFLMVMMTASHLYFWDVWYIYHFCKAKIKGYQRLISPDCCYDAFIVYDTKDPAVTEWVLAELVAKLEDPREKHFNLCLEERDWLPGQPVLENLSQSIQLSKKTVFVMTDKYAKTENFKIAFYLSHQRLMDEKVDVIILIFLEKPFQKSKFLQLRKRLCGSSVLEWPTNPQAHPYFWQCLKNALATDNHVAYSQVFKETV
Put plainly: HEK-Blue hTLR7 reporter assay (NF-kB-induced SEAP, Quanti-Blue). To be noted: Table 19, TLR7, drug-linkers with PEG shielding; read-out: EC50. Type of assay: cell-based. The protocol: HEK-Blue™ hTLR7 cells were incubated in HEK-Blue™ Detection medium and stimulated with increasing concentrations of TLR7 or TLR8 or TLR7/8 agonists. […] The EC50 was determined from dose-response curve using Prism Software.
For orientation: Reporter assays use an easily measured gene product as a stand-in for the process of interest.
Regarding `CCCCOc1nc(N)c2[nH]c(=O)n(Cc3ccc(CN4CCC(CCNC(=O)[C@H](CCCCN)NC(=O)CON)CC4)cc3)c2n1` [AXC-947, (S)-6-amino-N-(2-(1-(4-((6-amino-2-butoxy-8-oxo-7,8-dihydro-9H-purin-9-yl)methyl)benzyl)piperidin-4-yl)ethyl)-2-(2-(aminooxy)acetamido)hexanamide], the EC50 (commonly the concentration giving half of the maximal effect) is 337 nM.
As for `CCCCOc1nc(N)c2[nH]c(=O)n(Cc3ccc(CN4CCC(CCNC(=O)[C@H](CCCCNC(=O)CCOCCOCCOCCOCCOCCOCCOCCOCCOCCOCCOCCOCCOCCOCCOCCOCCOCCOCCOCCOCCOCCOCCOCCOC)NC(=O)CON)CC4)cc3)c2n1` [AXC-949, (S)—N-(2-(1-(4-((6-amino-2-butoxy-8-oxo-7,8-dihydro-9H-purin-9-yl)methyl)benzyl)piperidin-4-yl)ethyl)-2-(2-(aminooxy)acetamido)-6-PEG24-amidohexanamide], the figure is 760 nM; as for `CCCCOc1nc(N)c2[nH]c(=O)n(Cc3ccc(CN4CCC(CCNC(=O)[C@H](CCCCNC(=O)CCOCCOCCOCCOCCOCCOCCOCCOC)NC(=O)CON)CC4)cc3)c2n1` [AXC-950, (S)—N-(2-(1-(4-((6-amino-2-butoxy-8-oxo-7,8-dihydro-9H-purin-9-yl)methyl)benzyl)piperidin-4-yl)ethyl)-2-(2-(aminooxy)acetamido)-6-PEG8-amidohexanamide], 443 nM; as for `CCCCOc1nc(N)c2[nH]c(=O)n(Cc3ccc(CN4CCC(CCNC(=O)[C@H](CCCCNC(=O)CCOCCOCCOCCOCCOCCOCCOCCOCCOCCOCCOCCOCCOCCOCCOCCOCCOCCOCCOCCOCCOCCOCCOCCOCCOCCOCCOCCOCCOCCOCCOCCOCCOCCOCCOCCOCCOC)NC(=O)CON)CC4)cc3)c2n1` [AXC-951, (S)—N-(2-(1-(4-((6-amino-2-butoxy-8-oxo-7,8-dihydro-9H-purin-9-yl)methyl)benzyl)piperidin-4-yl)ethyl)-2-(2-(aminooxy)acetamido)-6-(PEG37)hexanamide], 842 nM.
With `CCCCOc1nc(N)c2[nH]c(=O)n(Cc3ccc(CN4CCC(CCNC(=O)[C@H](CCCCNC(=O)CCCC(=O)NCCOCCOCCOCCOCCC(=O)NC(COCCC(=O)NCCOCCOCCOCCOCCOCCOCCOCCOC)(COCCC(=O)NCCOCCOCCOCCOCCOCCOCCOCCOC)COCCC(=O)NCCOCCOCCOCCOCCOCCOCCOCCOC)NC(=O)CON)CC4)cc3)c2n1` [AXC-952, (S)—N-(2-(1-(4-((6-amino-2-butoxy-8-oxo-7,8-dihydro-9H-purin-9-yl)methyl)benzyl)piperidin-4-yl)ethyl)-2-(2-(aminooxy)acetamido)-6-(dPEG4-(m-dPEG8)3)hexanamide], the EC50 amounted to 1020 nM.
As for `CCCCOc1nc(N)c2[nH]c(=O)n(Cc3ccc(CN4CCC(CCNC(=O)[C@H](Cc5ccc(O)cc5)NC(=O)CON)CC4)cc3)c2n1` [AXC-953, (S)—N-(2-(1-(4-((6-amino-2-butoxy-8-oxo-7,8-dihydro-9H-purin-9-yl)methyl)benzyl)piperidin-4-yl)ethyl)-2-(2-(aminooxy)acetamido)-3-(4-hydroxyphenyl)propanamide], the figure is 201 nM; as for `CCCCOC(=O)Nc1nc(OCCCC)nc2c1[nH]c(=O)n2Cc1ccc(CN2CCC(CCNC(=O)CON)CC2)cc1` [AXC-954, butyl (9-(4-((4-(2-(2-(aminooxy)acetamido)ethyl)piperidin-1-yl)methyl)benzyl)-2-butoxy-8-oxo-8,9-dihydro-7H-purin-6-yl)carbamate], 111 nM.
As for `CCCCOc1nc(N)c2[nH]c(=O)n(Cc3ccc(CN4CCC(CCNC(=O)CCN5C(=O)C=CC5=O)CC4)cc3)c2n1` [AXC-955, N-(2-(1-(4-((6-amino-2-butoxy-8-oxo-7,8-dihydro-9H-purin-9-yl)methyl)benzyl)piperidin-4-yl)ethyl)-3-(2,5-dioxo-2,5-dihydro-1H-pyrrol-1-yl)propanamide], the figure is 173 nM.
